The METLIN SMRT retention time set (Domingo-Almenara et al. 2019)

Assay: gradient 5% acetonitrile 3 min, to 50% in 2 min, to 85% in 15 min, held 3 min, 100 µL/min
Conditions: column: Zorbax Extend-C18 2.1 x 50 mm; eluents: water / acetonitrile, 0.1% formic acid
Outline: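 A Zorbax Extend-C18 column (2.1 × 50 mm, 1.8 μm) run at 100 μL/min with water and acetonitrile, both containing 0.1% formic acid, separated mixtures of ~100 pure standards. The HPLC was coupled to a quadrupole time-of-flight mass spectrometer operated in positive and negative ionization mode, with dead and dwell volumes of 40 μL and 900 μL. Each retention time was taken from a computationally picked adduct peak that was then manually inspected.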

RP-LC retention time	SMILES
862 s	CC(=O)Nc1ccc(OCCOc2ccc([N+](=O)[O-])cc2)cc1
818 s	CC(C)NC(=O)c1ccc(OCC2CCCN(C(=O)c3ccc(N(C)C)cc3)C2)cc1 (stereo not drawn)
675 s	O=C(Nc1ccc(F)cc1)N1CCCC(Cn2c(C3CC3)nc3cccnc32)C1 (stereo not drawn)
664 s	CCc1nnc(NC(=O)CSc2nc3c(c(=O)n2CCOC)SC(C)C3)s1 (stereo not drawn)
620 s	O=C(c1ccncc1)N1CCCC(OCc2nc(C3CC3)no2)C1 (stereo not drawn)
593 s	COc1ccc(NC(=O)Cn2c(N)nc(C)cc2=O)cc1F
912 s	CCN(C(=O)C1CCCN(c2ncnc3c2nc2n3CCCCC2)C1)c1cccc(Cl)c1 (stereo not drawn)
667 s	CS(=O)(=O)N(C1CCOCC1)C1CN(C(=O)Cc2c[nH]c3ccccc23)C1
1060 s	Cc1ccc(NC(=O)CSc2nccc(N3CCN(c4cc(C)ccc4C)CC3)n2)c(C)c1
624 s	COc1ccc(CNC(=O)c2ccc3ncnc(N4CCCC4)c3c2)cc1
940 s	Cc1cc(C)n(Cc2nc(-c3ccc(NC(=O)c4ccsc4)cc3)oc2C)n1
990 s	CCOc1ccc(NC(=O)Cn2cccc2-c2nnc(-c3ccccc3)o2)cc1
623 s	CCOc1ccc(S(=O)(=O)N2CCCC(C(=O)NCc3ccccn3)C2)cc1 (stereo not drawn)
639 s	Cc1cc(N2CCN(C)CC2)nc2ccc(NC(=S)NC3CCCC(C)C3C)cc12 (stereo not drawn)
966 s	O=C1CC(c2noc(CCc3ccccc3)n2)CN1c1ccc(F)cc1 (stereo not drawn)
595 s	Cc1ccc(CNC(=O)c2ccc3c(c2)ncn3CCN2CCCC2)cc1C
725 s	CCn1ccc(C(=O)N2CC(c3nc(CCOCC4CC4)no3)C2)n1
709 s	CC1CN(c2ccccc2)c2nc3c(c(=O)n(CC(=O)O)c(=O)n3C)n2C1 (stereo not drawn)
749 s	O=C(Nc1ccc(N2CCN(Cc3ccc(F)cc3)C2=O)nc1)c1ccco1
890 s	CCC(C(=O)NCCc1c[nH]c2ccc(OC)cc12)n1c2ccccc2c2cnn(C)c(=O)c21 (stereo not drawn)
753 s	O=C(NCC1CCCO1)c1cccc(Nc2c(-c3ccc(Cl)cc3)nc3cnccn23)c1 (stereo not drawn)
1260 s	O=S(=O)(c1ccc(-c2noc(-c3cccc(Cl)c3)n2)cc1)N1CCCC1

RP-LC retention time	SMILES
797 s	CCOc1ccc(NC(=O)N2CCC(n3cnc4cc(F)ccc4c3=O)CC2)cc1
638 s	COc1ccccc1CNc1ncc(C(=O)O)c(-c2ccncc2)n1
778 s	C=CCn1nc2ccc(S(=O)(=O)N3CCCCC3)cn2c1=O
880 s	O=C(NCc1cccs1)c1ccc2c(c1)N(C(=O)c1ccc(F)cc1)CC2
689 s	COc1ccc(CCNC(=O)C2CCN(S(=O)(=O)c3cn(C(C)C)cn3)CC2)cc1OC
904 s	Cc1cccc2c(=O)n(C3CCN(S(=O)(=O)c4ccc(F)cc4F)CC3)cnc12
1060 s	COc1cccc(NC(=O)c2sc(-c3cn(C(C)C)c4ncccc34)nc2C)c1
614 s	Cc1cccc(OCC(=O)N2CCN(c3cc(C)n4c(C)nnc4n3)CC2)c1
884 s	COc1ccc2oc(-c3csc(NC(=O)c4ccc(N5C(=O)CCC5=O)cc4)n3)cc2c1
740 s	O=C(Nc1ccc(Cl)cc1F)C1CCCN(C(=O)c2cc(-c3ccccn3)n[nH]2)C1 (stereo not drawn)
935 s	CCc1onc(C)c1C1CCCN1C(=O)Nc1cc(C)ccc1OC (stereo not drawn)
843 s	Cc1ccc(-c2cn3c(CC(=O)NCc4ccc(F)cc4)csc3n2)cc1C
681 s	CCN(CC)S(=O)(=O)c1ccc2c(c1)N(CC(=O)NC1CC1)C(=O)C1CCCCN21 (stereo not drawn)
889 s	Cc1cccc(CNC(=O)CN2CCN(Cc3ccc(F)cc3Cl)C2=O)c1
609 s	O=C(NCC1CCS(=O)(=O)C1)c1ccc2nsnc2c1 (stereo not drawn)
757 s	Cc1cc(C)c(NC(=O)Cn2nc3c(N4CCCCCC4)nccn3c2=O)c(C)c1
809 s	Cc1cc(C)c(C(=O)N2CCCC(C(=O)NC3CCCCC3)C2)[nH]1 (stereo not drawn)
644 s	O=C(CSc1nccn1-c1ccc(C(=O)NCc2cccs2)cc1)NC1CCCC1
762 s	CN1C(=O)Cc2ccccc2C1C(=O)NCc1ccc(Cl)cc1 (stereo not drawn)
762 s	CCCCNC(=O)CCc1[nH]c(C)c(C(=O)OCC)c1C
570 s	Cc1noc(COC2CCCN(C(=O)c3ccc4cc[nH]c4c3)C2)n1 (stereo not drawn)
666 s	CCc1nnc([C@@H]2CC(F)(F)CN2C(=O)CCn2nc(C)cc2C)o1

RP-LC retention time	SMILES
767 s	COCCNC(=O)c1ccc2c(c1)CCCN2S(=O)(=O)c1ccccc1
634 s	CCN(CCN(C)C)c1ccc(C(=O)O)cc1NS(=O)(=O)c1cc(F)ccc1C
1050 s	Cc1ccccc1-c1nc(-c2ccc3c(c2)nnn3C)no1
945 s	CCCCN(CC)c1nc(C)nc2c1c(C)cn2-c1c(C)cc(C)cc1C
855 s	CCc1noc(NC(C)=O)c1-c1ccc(C)c(S(=O)(=O)NCCc2ccccc2)c1
1040 s	CCC1CCCCN1C(=O)CN1C(=O)CCCc2cc(S(=O)(=O)N3CCC(C)CC3)ccc21 (stereo not drawn)
1100 s	CCCn1cc(C(=O)NCc2ccc(F)cc2F)c(S(=O)(=O)N2CCC(C)CC2)n1
904 s	O=c1ccc(-c2nc(-c3ccncc3)no2)nn1Cc1ccc(F)cc1Cl
770 s	COc1cc([C@@H]2c3cc4c(cc3[C@H](O)[C@@H](CO)[C@@H]2C(=O)NCc2ccc(OC(C)C)cc2)OCO4)cc(OC)c1OC
973 s	CCCS(=O)(=O)c1nc2ccc(NS(=O)(=O)c3ccc(F)c(F)c3)cc2s1
748 s	CCn1ccc2c(cc(C(=O)Nc3cccc(OC)c3)n2C)c1=O
855 s	CCn1cc(S(=O)(=O)NCc2ccc(F)cc2Cl)c2cccnc21
887 s	COc1ccc(C2=NC(c3ccc(Cl)cc3)C(c3ccc(Cl)cc3)N2C(=O)N2CCNC(=O)C2)c(OC(C)C)c1 (stereo not drawn)
1010 s	O=C1CC(c2noc(-c3ccccc3F)n2)CN1c1ccc(Cl)cc1 (stereo not drawn)
745 s	COc1ccc2cc(C(=O)N3CC(n4cc(COCC5CC5)nn4)C3)[nH]c2c1
1070 s	O=C1CC(c2nc(-c3ccc(C(F)(F)F)cc3)no2)CN1c1ccc2c(c1)OCO2 (stereo not drawn)
630 s	CC(=O)Nc1ccc(NC(=O)CCNc2c(-c3ccc(F)cc3)nc3cnccn23)cc1
1140 s	COc1ccc(-c2nc(-c3ccc4nnn(C(C)C)c4c3)no2)cc1
705 s	Cc1ccc(C)c(NC(=O)Cn2cnc3nc4c(cc3c2=O)CCCC4)c1
823 s	Cc1ccc(S(=O)(=O)N2C[C@@H](F)C[C@H]2C(=O)N2CCCCC2)cc1C
577 s	CCN1CCN(CCNC(=O)Cn2c3ccccc3c3cnn(C)c(=O)c32)CC1
955 s	Cc1cccc(-c2noc(C3CCCN3C(=O)NC3CCCC3)n2)c1 (stereo not drawn)

RP-LC retention time	SMILES
591 s	CCOCCCNC(=O)c1c2c(cn(-c3ccccc3)c1=O)C(=O)CC(C)(C)C2
709 s	Cc1ccc(OCc2ccc(-c3nc(C#N)c(NCCN(C)C)o3)o2)cc1
1000 s	Cc1onc(-c2ccccn2)c1C(=O)NCCc1c[nH]c2ccc(Cl)cc12
537 s	CCN(CC)c1ncc2c(n1)CCC(C(=O)NCc1nc3ccccc3n1C)C2 (stereo not drawn)
839 s	COc1ccc(Br)cc1CNC(=O)C1CCN(C(=O)c2cc3ccsc3[nH]2)CC1
609 s	CCOc1ccc(-n2c(CN3CCN(C(=O)NCCCOC)CC3)nc3cccnc32)cc1
565 s	Nc1nnc(CCS(=O)(=O)c2ccccc2)o1
830 s	COc1ccc(-c2nc3cnccn3c2Nc2ccc(Cl)cc2)cc1OC
714 s	Cc1ccc(C2=NC3(CCN(C(=O)Nc4ccc5c(c4)OCO5)CC3)NC2=O)cc1
634 s	CN1C(=O)c2cccn2CC1C(=O)NC1CCCC1 (stereo not drawn)
1200 s	Cc1nc2c(sc3nc(-c4ccccc4)ccc32)c(=O)n1CC(=O)Nc1ccc(C(C)C)cc1
624 s	COc1ccc(CC(=O)Nc2cccc(-c3ccc4nnc(-c5ccncc5)n4n3)c2)cc1
694 s	CC(C)N1CC(CNC(=O)c2ccc(Cl)s2)C2(CCCCC2)C1 (stereo not drawn)
1030 s	Cn1cc2c3c(cccc31)CN(C(=O)c1ccc(Br)cc1)CC2
605 s	O=C(NCc1ccccc1F)c1ccc2c(c1)CNCCO2
751 s	CC(C)N1CCn2cc(S(=O)(=O)Nc3cccc(F)c3)cc2C1=O
1190 s	CC(C)(C)c1ccc(/C=C/C(=O)Nc2ccc3c(c2)OCCO3)cc1
1080 s	COc1ccc(Nc2nc(-c3nnn(-c4ccc(Br)cc4F)c3C)ns2)cc1
658 s	CN(C)c1ccc(CNC(=O)CCCn2c(=O)c3cccn3c3ccc(F)cc32)cc1
1100 s	Cc1ccccc1Nc1c(-c2cccc(Br)c2)nc2ccc(Cl)cn12
659 s	COc1cc(C(=O)N(Cc2ccc(N(C)C)cc2)CC2CCCO2)cc(OC)c1OC (stereo not drawn)
814 s	Cc1ccc(CNC(=O)CCCn2c3ccccc3c3cnn(C)c(=O)c32)o1
